Consider 70 compounds from the OPERA property sets (Mansouri et al. 2018).

Structures are written as SMILES.

Settings in the first data set: not given
Usually melting point stands for the temperature of the solid-liquid transition. As to `N#CCC=CCC#N`, the log10 vapour pressure (mmHg) was -2.16 and the melting point is 76 °C.

One may read the boiling point as the temperature at which the vapour pressure of the liquid equals the pressure above it. The compound `COc1c(C)cccc1C` returned a boiling point of 182 °C.

The compound `CC1(C)C(=O)NC(=O)N1CO` yielded a melting point of 100 °C.

`COC(=O)c1sccc1S(=O)(=O)NC(=O)Nc1nc(C)nc(OC)n1` yielded a log10 Koc (L/kg) of 1.45, a log10 vapour pressure (mmHg) of -9.89 and a melting point of 176 °C.

As for `Nc1ccc2[nH]ncc2c1`, the melting point came out at 176 °C.

The compound `C[C@]12C=CC(=O)C=C1CC[C@H]1[C@@H]3C[C@@H](O)[C@](O)(C(=O)CO)[C@@]3(C)C[C@H](O)[C@@]12F` displayed a melting point of 270 °C.

Compound `CCC(=O)OC(C)CC` (stereo unspecified) displayed a boiling point of 133 °C.

As for `COc1ccc([N+](=O)[O-])c(OC)c1`, the melting point is 76.5 °C.

Compound `C=C=O` returned a boiling point of -49.8 °C, a log10 vapour pressure (mmHg) of 4.02 and a melting point of -151 °C.

In turn, `FC(F)Br` gave a boiling point of -15.5 °C and a melting point of -145 °C.

For the compound `NS(=O)(=O)c1ccc(CCCCO)cc1`, the melting point is 78.5 °C.

`O=C(O)c1cccc(C(F)(F)F)c1`: the boiling point stood at 238 °C and the melting point came to 106 °C.

`CC(=O)OCCCCl` displayed a boiling point of 164 °C.

Compound `C[C@H](O)CCCO` returned a boiling point of 202 °C.

`CC(=O)OCOC(=O)[C@@H]1N2C(=O)[C@@H](NC(=O)Cc3ccccc3)[C@H]2SC1(C)C` returned a melting point of 107 °C.

As for `FC1(F)C(F)(F)C(F)(F)C2(F)C(F)(F)C(F)(F)C(F)(F)C(F)(F)C2(F)C1(F)F` (stereo unspecified), the melting point was -10 °C.

`CCCCCCCCCCCCCCCCC(=O)O` had a boiling point of 364 °C, a log10 vapour pressure (mmHg) of -7.21 and a melting point of 61.3 °C.

Take `CCCCCCCCCCCCCO`: the log10 vapour pressure (mmHg) is -3.36, the melting point came out at 32.5 °C and the ready biodegradability entry is listed as “readily biodegradable”.

`C=C(C)CCC(=C)C` showed a boiling point of 114 °C and a melting point of -75.6 °C.

The compound `CNC[C@H](O)c1cccc(O)c1.Cl` displayed a melting point of 142 °C.

On to `C#CCNC`, for which the boiling point was 83 °C.

Turning to `C=C1CC[C@H]2O[C@]2(C)CC[C@@H]2[C@@H]1CC2(C)C`, the melting point came out at 62.5 °C.

Regarding `FC(F)(F)F`, the boiling point is -128 °C, the log10 Henry constant (atm·m³/mol) turned out to be 0.712, the log10 Koa is -0.95 and the log10 vapour pressure (mmHg) was determined as 5.24. The compound also gave a melting point of -184 °C.

Compound `COC(=O)c1ccc(I)cc1` yielded a melting point of 115 °C.

As to `COc1ccc2c(OC)c3ccoc3nc2c1OC`, the melting point came to 177 °C.

With `OCCC(F)(F)C(F)(F)C(F)(F)C(F)(F)C(F)(F)C(F)(F)C(F)(F)C(F)(F)F`, the ready biodegradability result is listed as “not readily biodegradable”.

In the case of `O=c1n(CC2CO2)c(=O)n(CC2CO2)c(=O)n1CC1CO1` (stereo unspecified), the ready biodegradability result is listed as “not readily biodegradable”.

With `CC(=O)Oc1c[nH]c2ccccc12`, the melting point is 129 °C.

In turn, `CCC(C)(C)S` had a boiling point of 99.1 °C and a log10 vapour pressure (mmHg) of 1.68.

`CCCC(CC)C(C)C` (stereo unspecified) returned a boiling point of 138 °C.

`CCC1=CCCCC1` yielded a boiling point of 137 °C and a melting point of -110 °C.

The compound `Brc1cc2c(cc1Br)Oc1cc(Br)c(Br)cc1O2` showed a log10 vapour pressure (mmHg) of -8.32 and a melting point of 334 °C.

For `CCS(=O)(=O)c1cccnc1S(=O)(=O)NC(=O)Nc1nc(OC)cc(OC)n1`, the log10 Koc (L/kg) was found to be 1.71 and the melting point came out at 177 °C.

For `CC[N+](CC)(CC(=O)Nc1c(C)cccc1C)Cc1ccccc1.O=C([O-])c1ccccc1`, the melting point is 168 °C.

In turn, `S=P(N1CC1)(N1CC1)N1CC1` came in with a melting point of 51.5 °C.

Compound `O=C(OCCOC(=O)c1ccccc1)c1ccccc1` registered a melting point of 73.5 °C.

As to `O=C1C=C(c2ccccc2)CC1`, the boiling point turned out to be 234 °C and the melting point is -23 °C.

`C[C@@H](O)C1CC1` displayed a boiling point of 124 °C and a melting point of -32.1 °C.

Take `c1ccc(OCc2ccc(CCCN3CCOCC3)cc2)cc1`: the melting point was 52.5 °C.

Turning to `CCOc1ccccc1C`, the boiling point worked out at 184 °C.

In the case of `CC1(C)S[C@@H]2[C@H](NC(=O)C3(N)CCCCC3)C(=O)N2[C@H]1C(=O)O`, the melting point came out at 182 °C.

On to `Cc1cccc2c1ccc1ccccc12`, for which the log10 Henry constant (atm·m³/mol) is -4.31, the log10 biodegradation half-life (days) turned out to be 1.36, the log10 vapour pressure (mmHg) was -4.82 and the melting point was determined as 123 °C.

Turning to `CNC(=O)Oc1cc(C)c(SC)c(C)c1`, the log10 Henry constant (atm·m³/mol) was -8.93, the log10 Koc (L/kg) is 2.32, the log10 vapour pressure (mmHg) was -6.57 and the melting point was 120 °C.

For the compound `CCCCCCCCCCCCBr`, the boiling point was 276 °C, the log10 vapour pressure (mmHg) was -2.41 and the melting point was -9.5 °C.

In turn, `CCOP(=S)(OCC)Oc1ccc(S(C)(=O)=O)cc1` came in with a log10 Koc (L/kg) of 2.17.

Turning to `Clc1nc(Cl)c(Cl)c(Cl)c1Cl`, the log10 vapour pressure (mmHg) was -1.85 and the melting point is 126 °C.

With `BrC1CCC(Br)C(Br)CCC1Br` (stereo unspecified), the ready biodegradability entry was “not readily biodegradable”.

On to `N#CCC(=O)O`, for which the melting point amounted to 66 °C and the ready biodegradability result is “readily biodegradable”.

For the compound `BrCC1CO1` (stereo unspecified), the boiling point is 135 °C and the melting point was -40 °C.

As for `OC1(c2ccc(Cl)c(C(F)(F)F)c2)CCN(CCCC(c2ccc(F)cc2)c2ccc(F)cc2)CC1`, the melting point was 106 °C.

The compound `CCOc1ccccc1[N+](=O)[O-]` had a boiling point of 267 °C and a melting point of 2.2 °C.

Compound `NC(=O)c1cc([N+](=O)[O-])cc([N+](=O)[O-])c1` gave a log10 Koc (L/kg) of 2.31 and a melting point of 184 °C.

As to `CC1=C(C(=O)Nc2ccccc2)CCCO1`, the melting point worked out at 110 °C.

In turn, `FC(Cl)C(F)(F)F` (stereo unspecified) returned a boiling point of -12 °C and a log10 vapour pressure (mmHg) of 3.46.

For the compound `CCS(=O)(=O)C(C)(C)S(=O)(=O)CC`, the boiling point is 300 °C and the melting point was determined as 126 °C.

`C(=Nc1ccccc1)c1ccccc1` had a boiling point of 310 °C and a melting point of 54 °C.

With `ClC=CCCl` (mixture of isomers), the boiling point was determined as 109 °C, the log10 Henry constant (atm·m³/mol) is -2.62, the log10 Koc (L/kg) came out at 1.67 and the melting point is -50 °C.

Turning to `O=CNC1CCCCC1`, the boiling point is 260 °C and the melting point is 39.5 °C.

Turning to `O=C(O)CC(S)C(=O)O` (stereo unspecified), the melting point turned out to be 149 °C.

The compound `Cc1c[nH]cn1` displayed a boiling point of 263 °C and a melting point of 56 °C.

In turn, `CCOC(=O)CCC(=O)CC1(O)C2(Cl)C3(Cl)C4(Cl)C(Cl)(Cl)C5(Cl)C3(Cl)C1(Cl)C5(Cl)C42Cl` (stereo unspecified) registered a melting point of 91 °C.

`Nc1c(Br)cc([N+](=O)[O-])cc1[N+](=O)[O-]` had a melting point of 154 °C.

With `C[Se][Se]C`, the boiling point came to 156 °C and the log10 vapour pressure (mmHg) came out at 0.455.

Consider `Clc1cccc(-c2cccc(Cl)c2Cl)c1`, for which the log10 Henry constant (atm·m³/mol) was -3.8.

On to `c1ccc(P(c2ccccc2)c2ccccc2)cc1`, for which the melting point came out at 80 °C.

Compound `CCCBr` had a boiling point of 71.1 °C, a log10 vapour pressure (mmHg) of 2.04 and a melting point of -110 °C.

Compound `CC1=NN(c2ccc(C)cc2)C(=O)C1` gave a melting point of 138 °C.

`CCCCCC(C)=O`: the boiling point came to 151 °C, the log10 Henry constant (atm·m³/mol) is -3.77, the log10 Koa was found to be 4.15 and the log10 vapour pressure (mmHg) was determined as 0.586. The same compound yielded a melting point of -35 °C.

Staying with this data set, now noted: fish.
For `Cc1cccc2c1ccc1ccccc12`, the log10 biotransformation half-life (days) was determined as 0.63.

On to `Cc1cc(C)c2ccccc2c1`, for which the log10 biotransformation half-life (days) came out at 0.51.

For the compound `Clc1ccc(Oc2cc(Cl)c(Cl)cc2Cl)cc1`, the log10 biotransformation half-life (days) came out at 1.93.
